{"source": "paper PMC8204796", "about": "(ACS Pharmacology & Translational Science, 2021)", "test_system": "NPC1^I1061T patient-derived fibroblast cells (GM18453)", "experiment": "LipidTox Red lipid droplet staining", "assay_type": "cell-based, human", "details": "10 μM, 48 h, vs DMSO", "data": [{"smiles": "CC(=O)Nc1ccc(C(=O)Nc2ccccc2N)cc1", "note": "[CI-994]", "values": [{"measurement": "Lipid droplet formation (LipidTox Red)", "value": "increases lipid droplet formation"}]}]}
